Test results taken from ChEMBL document CHEMBL4699488, “Probing the B- & C-rings of the antimalarial tetrahydro-β-carboline MMV008138 for steric and conformational constraints” (Bioorg Med Chem Lett, 2020).

tested on: Plasmodium falciparum; assay: Antimalarial activity against Plasmodium falciparum Dd2 at 10 uM incubated for 72 hrs by SYBR green dye based assay relative to control; assay type: functional; conditions: not given

| Compound | inhibition at 10 µM |
| --- | --- |
| CN1[C@H](c2ccc(Cl)cc2Cl)c2[nH]c3ccccc3c2C[C@H]1C(=O)O | 65% |

tested on: Plasmodium falciparum; assay: Antimalarial activity against Plasmodium falciparum Dd2 incubated for 72 hrs by SYBR green dye based assay; assay type: functional, organism-based; conditions: Dd2, 72 h

| EC50 | Compound |
| --- | --- |
| 410 nM | Cc1ccc([C@H]2N[C@H](C(=O)O)Cc3c2[nH]c2ccccc32)c(Cl)c1 |
| > 10000 nM | C[C@]1(c2ccccc2)N[C@H](C(=O)O)Cc2c1[nH]c1ccccc21 |
| > 10000 nM | C[C@]1(c2ccc(Cl)cc2)N[C@H](C(=O)O)Cc2c1[nH]c1ccccc21 |
| > 10000 nM | O=C(O)[C@@H]1Cc2c([nH]c3ccccc23)[C@]2(CCc3ccccc32)N1 |
| > 10000 nM | C[C@]1(c2ccc(Cl)cc2Cl)N[C@H](C(=O)O)Cc2c1[nH]c1ccccc21 |
| > 10000 nM | C[C@]1(c2ccccc2Cl)N[C@H](C(=O)O)Cc2c1[nH]c1ccccc21 |

Continued, compound first:

| Compound | EC50 |
| --- | --- |
| O=C(O)[C@H](Cc1c[nH]c2ccccc12)NCc1ccc(Cl)cc1Cl | > 10000 nM |
| Cc1ccc([C@H]2N[C@H](C(=O)O)Cc3c2[nH]c2ccccc32)c(C)c1 | 10000 nM |
| O=C(O)[C@@H]1Cc2c([nH]c3ccccc23)[C@@H](c2ccc(Br)cc2Cl)N1 | 320 nM |
| O=C(O)[C@@H]1Cc2c([nH]c3ccccc23)CN1Cc1ccc(Cl)cc1Cl | > 10000 nM |
| Cn1c2c(c3ccccc31)C[C@@H](C(=O)O)N[C@@H]2c1ccc(Cl)cc1Cl | 8000 nM |
| C[C@@]1(C(=O)O)Cc2c([nH]c3ccccc23)[C@@H](c2ccc(Cl)cc2Cl)N1 (racemic) | > 10000 nM |

tested on: not listed separately; assay: Inhibition of Plasmodium falciparum IspD; conditions: not given

| IC50 | Compound |
| --- | --- |
| 260 nM | Cc1cc(Cl)ccc1[C@H]1N[C@H](C(=O)O)Cc2c1[nH]c1ccccc21 |
| 82 nM | Cc1ccc([C@H]2N[C@H](C(=O)O)Cc3c2[nH]c2ccccc32)c(Cl)c1 |
| > 5000 nM | O=C(O)[C@@H]1Cc2c([nH]c3ccccc23)[C@@H](c2ccccc2)N1 |
| 510 nM | O=C(O)[C@@H]1Cc2c([nH]c3ccccc23)[C@@H](c2ccc(Cl)cc2)N1 |
| 1000 nM | O=C(O)[C@@H]1Cc2c([nH]c3ccccc23)[C@@H](c2ccccc2Cl)N1 |

Further lines, the compound ahead of its results:

| Compound | IC50 |
| --- | --- |
| Cc1ccc([C@H]2N[C@H](C(=O)O)Cc3c2[nH]c2ccccc32)c(C)c1 | 1000 nM |
| O=C(O)[C@@H]1Cc2c([nH]c3ccccc23)[C@@H](c2ccc(Br)cc2Cl)N1 | 34 nM |
